Patent US7833967B2, “Synthetic antimicrobial polypeptides” (priority 2003, dated 2010)
Where two headings read alike, the source gives them in different places. Ends that are not written are not given here.

Tested on: human red blood cells (hRBC)
Format: cell-based
Details: red cells of human
Procedure: The ability of the antimicrobial peptides to lyse human red blood cells (hRBC) was analyzed. The Red Blood Cell Test assay provides a simple test system that assesses the membranolytic activity of test materials. It is suitable as a screening assay for hemolytic properties. Hemoglobin release is a useful endpoint of cell membrane integrity. Released hemoglobin is detected by measuring absorbance at 540 nm. Normally, the concentration resulting in 50% hemolysis relative to a totally lysed sample (HL50) would be calculated; however due to the low hemolytic activity of the tested peptides, this was not done in this Example. An 8% RBC suspension (12 days old) was used in the present test setup.
Since the peptides were dissolved in 0.01% acetic acid, vehicle control of the 0.01% acetic acid was included. PBS with 25%, 10%, and 5% 0.01% acetic acid was included on both plates.
To verify that a dose/response effect exists, the hemolytic activity of SDS was also tested.

With “RRRPRPVPRPFPRPVPRPLPRPFPRPF [SEQ ID NO: 61]” the “Hemolysis (%)” value (47 micrograms/ml) was 16%, the “Hemolysis (%)” value (94 micrograms/ml) was 16% and the “Hemolysis (%)” value (188 micrograms/ml) was 16%. The “Hemolysis (%)” value (375 micrograms/ml) was 17%.
